According to patent US20250026752A1, “POSITIVE ALLOSTERIC MODULATORS OF THE MUSCARINIC ACETYLCHOLINE RECEPTOR M4” (Vanderbilt University, priority 2021, published 2025):

Assays:
[1] = hepatotoxicity of AChE inhibitors; cited from earlier work
[2] = without causing catalepsy; cited from earlier work
[3] = Alzheimer's disease patients; cited from earlier work
[4] = molecular target: T1, human mAChR M4 (Homo sapiens, UniProt P08173); assay: mAChR M4 cell-based functional assay: calcium flux (Fluo-4, FDSS), positive allosteric modulator activity on the EC20 acetylcholine response, hM4-Gqi5 CHO-K1 cells; conditions: for Emax at 30 µM: CHO-K1, human M4, % ACh maximum at 30 μM; for EC50: human M4, PAM activity on EC20 acetylcholine response, calcium flux, read-out: Human M4 EC50
T1 construct: expressed in transfected cells; host or cells: CHO-K1 (ATCC), stably expressing hM4 and Gqi5
T1 sequence (P08173 1-479): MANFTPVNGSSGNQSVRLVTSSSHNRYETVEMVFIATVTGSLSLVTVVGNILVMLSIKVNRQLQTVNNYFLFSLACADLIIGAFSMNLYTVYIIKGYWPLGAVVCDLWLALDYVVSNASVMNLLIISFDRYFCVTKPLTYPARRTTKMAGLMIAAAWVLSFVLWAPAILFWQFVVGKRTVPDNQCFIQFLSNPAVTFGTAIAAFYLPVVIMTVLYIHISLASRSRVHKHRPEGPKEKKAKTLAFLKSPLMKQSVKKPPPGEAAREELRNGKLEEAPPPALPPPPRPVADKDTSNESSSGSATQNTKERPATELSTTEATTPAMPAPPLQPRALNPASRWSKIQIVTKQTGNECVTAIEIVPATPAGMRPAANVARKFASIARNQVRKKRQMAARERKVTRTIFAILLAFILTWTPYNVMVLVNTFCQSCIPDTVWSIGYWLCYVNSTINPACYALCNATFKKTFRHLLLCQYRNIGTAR
Outline: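 CHO-K1 cells stably expressing human M4 with chimeric Gqi5, loaded with Fluo-4 AM for 50 min at 37° C. Compounds (11-point, 1:3 dilutions) added first, then an acetylcholine EC20 at 144 s; calcium read on FDSS at 1 Hz. EC50 is the half-maximal increase above the EC20 baseline, four-parameter logistic fit.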

Structure (SMILES) | elevated liver transaminases observed in patients [1] | activity in animal models with profiles similar to known antipsychotic drugs [2] | effect on psychotic behavioral symptoms (delusions, suspiciousness, vocal outbursts, hallucinations) [3] | Emax at 30 µM [4] [%] | EC50 [4] [nM]
Nc1c2c(nc3ccccc13)CCCC2 [tacrine] | about 30 % of patients | – | – | – | –
CCCCCCOc1nsnc1C1=CCCN(C)C1 [xanomeline] | – | active in animal models | reduce psychotic behavioral symptoms | – | –
Cn1cc(-c2cnc3c(c2)CN(c2ncnc4ccc(F)cc24)CC3)cn1 [Compound 15, 6-fluoro-4-[3-(1-methylpyrazol-4-yl)-7,8-dihydro-5H-1,6-naphthyridin-6-yl]quinazoline] | – | – | – | 105 | 40
Cc1ccc(F)cc1-c1cnc2c(c1)CN(c1ncnc3ccc(F)cc13)CC2 [Compound 293, 6-fluoro-4-(3-(5-fluoro-2-methylphenyl)-7,8-dihydro-1,6-naphthyridin-6(5H)-yl)quinazoline] | – | – | – | 80 | 740
Cn1nccc1-c1cnc2c(c1)CN(c1ncnc3ccc(Cl)cc13)CC2 [Compound 39, 6-chloro-4-[3-(2-methylpyrazol-3-yl)-7,8-dihydro-5H-1,6-naphthyridin-6-yl]quinazoline] | – | – | – | 84 | 60
Cc1nc(N2CCc3ncc(-c4ccnn4C4COC4)cc3C2)c2cc(Cl)ccc2n1 [Compound 255, 6-chloro-2-methyl-4-(3-(1-(oxetan-3-yl)-1H-pyrazol-5-yl)-7,8-dihydro-1,6-naphthyridin-6(5H)-yl)quinazoline] | – | – | – | 76 | 610
Cn1nc(C(F)(F)F)cc1-c1cnc2c(c1)CN(c1ncnc3ccc(F)cc13)CC2 [Compound 267, 6-fluoro-4-(3-(1-methyl-3-(trifluoromethyl)-1H-pyrazol-5-yl)-7,8-dihydro-1,6-naphthyridin-6(5H)-yl)quinazoline] | – | – | – | 81 | 200
COc1ccc2ncnc(N3CCc4ncc(N5CCCn6nccc65)cc4C3)c2c1 [Compound 77, 4-[3-(6,7-dihydro-5H-pyrazolo[1,5-a]pyrimidin-4-yl)-7,8-dihydro-5H-1,6-naphthyridin-6-yl]-6-methoxy-quinazoline] | – | – | – | 127 | 70
